Measurements from patent publication US9320737B2, “Substituted imidazopyridazines” (Bayer Intellectual Property GmbH, priority 2011, dated 2016).

Each compound was assayed against human full-length MKNK1 (Homo sapiens (Human), UniProt Q9BUB5, T344D) (assay: MKNK1 kinase assay (MKNK1 TR-FRET assay)). Conditions: GST-MKNK1 (T344D), 10 μM ATP, average or median values.
Type: biochemical
Experimental: MKNK1-inhibitory activity of compounds of the present invention was quantified employing the MKNK1 TR-FRET assay as described in the following paragraphs.
As substrate for the kinase reaction the biotinylated peptide biotin-Ahx-[…] (C-terminus in amide form) was used which can be purchased e.g. form the company Biosyntan (Berlin-Buch, Germany).
For the assay […] of a 100 fold concentrated solution of the test compound in DMSO was pipetted into a black low volume 384 well microtiter plate (Greiner Bio-One, Frickenhausen, Germany), 2 μL of a solution of MKNK1 in aqueous assay buffer [50 mM HEPES pH 7.5, 5 mM magnesium chloride, 1.0 mM dithiothreitol, 0.005% (v/v) Nonidet-P40 (Sigma)] was added and the mixture was incubated for 15 min at 22° C. to allow pre-binding of the test compounds to the enzyme before the start of the kinase reaction. Then the kinase reaction was started by the addition of 3 μL of a solution of adenosine-tri-phosphate (ATP, 16.7 μM=>final conc. in the 5 μL assay volume is 10 μM) and substrate (0.1 μM=>final conc. in the 5 μL assay volume is 0.06 μM) in assay buffer and the resulting mixture was incubated for a reaction time of 45 min at 22° C. The concentration of MKNK1 was adjusted depending of the activity of the enzyme lot and was chosen appropriate to have the assay in the linear range, typical concentrations were in the range of 0.05 μg/ml. The reaction was stopped by the addition of 5 μL of a solution of TR-FRET detection reagents (5 nM streptavidine-XL665 [Cisbio Bioassays, Codolet, France] and 1 nM anti-ribosomal protein S6 (pSer236)-antibody from Invitrogen [#44921G] and 1 nM LANCE EU-W1024 labeled ProteinG [Perkin-Elmer, product no. AD0071]) in an aqueous EDTA-solution (100 mM EDTA, 0.1% (w/v) bovine serum albumin in 50 mM HEPES pH 7.5).
The resulting mixture was incubated for 1 h at 22° C. to allow the formation of complex between the phosphorylated biotinylated peptide and the detection reagents. Subsequently the amount of phosphorylated substrate was evaluated by measurement of the resonance energy transfer from the Eu-chelate to the streptavidine-XL. Therefore, the fluorescence emissions at 620 nm and 665 nm after excitation at 350 nm were measured in a TR-FRET reader, e.g. a Rubystar (BMG Labtechnologies, Offenburg, Germany) or a Viewlux (Perkin-Elmer). The ratio of the emissions at 665 nm and at 622 nm was taken as the measure for the amount of phosphorylated substrate.

Chain of human full-length MKNK1 (Q9BUB5 other isoform, or with tags, fused parts or gaps T344D): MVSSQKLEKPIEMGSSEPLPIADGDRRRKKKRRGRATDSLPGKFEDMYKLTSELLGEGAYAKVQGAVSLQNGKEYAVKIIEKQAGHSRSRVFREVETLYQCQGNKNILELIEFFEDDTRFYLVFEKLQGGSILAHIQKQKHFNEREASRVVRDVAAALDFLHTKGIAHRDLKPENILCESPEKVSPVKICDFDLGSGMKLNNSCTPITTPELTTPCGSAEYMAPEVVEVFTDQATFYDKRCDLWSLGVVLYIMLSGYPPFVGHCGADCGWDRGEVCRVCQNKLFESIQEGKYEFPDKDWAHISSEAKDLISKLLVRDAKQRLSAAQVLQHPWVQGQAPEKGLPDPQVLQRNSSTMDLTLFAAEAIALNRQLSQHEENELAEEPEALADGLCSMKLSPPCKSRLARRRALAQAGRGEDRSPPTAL

IC50 | Structure (SMILES)
21 nM | COc1cccc2oc(-c3cnc4ccc(OCCCSC)nn34)cc12 [Example I.1, 3-(4-Methoxy-1-benzofuran-2-yl)-6-[3-(methylsulfanyl)propoxy]imidazo[1,2-b]-pyridazine]
11 nM | CSCCCOc1ccc2ncc(-c3cc4ccccc4o3)n2n1 [Example I.2, 3-(1-Benzofuran-2-yl)-6-[3-(methylsulfanyl)propoxy]imidazo[1,2-b]pyridazine]
16 nM | CSCCOc1ccc2ncc(-c3cc4ccccc4o3)n2n1 [Example I.4, 3-(1-Benzofuran-2-yl)-6-[2-(methylsulfanyl)ethoxy]imidazo[1,2-b]pyridazine]
2 nM | COc1cccc2oc(-c3cnc4ccc(OCCC[S+](C)[O-])nn34)cc12 (stereo not shown) [Example II.1, 3-(4-Methoxy-1-benzofuran-2-yl)-6-[3-(methylsulfinyl)propoxy]imidazo[1,2-b]pyridazine]
4 nM | C[S+]([O-])CCCOc1ccc2ncc(-c3cc4ccccc4o3)n2n1 (stereo not shown) [Example II.2, 3-(1-Benzofuran-2-yl)-6-[3-(methylsulfinyl)propoxy]imidazo[1,2-b]pyridazine]
5 nM | CS(=O)(=O)CCCOc1ccc2ncc(-c3cc4ccccc4o3)n2n1 [Example III.1, 3-(1-Benzofuran-2-yl)-6-[3-(methylsulfonyl)propoxy]imidazo[1,2-b]pyridazine]
5 nM | COc1ccc2oc(-c3cnc4ccc(OCCCS(C)(=O)=O)nn34)cc2c1 [Example III.2, 3-(5-Methoxy-1-benzofuran-2-yl)-6-[3-(methylsulfonyl)propoxy]imidazo[1,2-b]pyridazine]
2 nM | COc1cccc2oc(-c3cnc4ccc(OCCCS(C)(=O)=O)nn34)cc12 [Example III.3, 3-(4-Methoxy-1-benzofuran-2-yl)-6-[3-(methylsulfonyl)propoxy]imidazo[1,2-b]pyridazine]
7 nM | CS(=O)(=O)CCCOc1ccc2ncc(-c3cc4cc(F)ccc4o3)n2n1 [Example III.4, 3-(5-Fluoro-1-benzofuran-2-yl)-6-[3-(methylsulfonyl)propoxy]imidazo[1,2-b]pyridazine]
15 nM | CS(=O)(=O)CCCOc1ccc2ncc(-c3cc4cc(Cl)ccc4o3)n2n1 [Example III.5, 3-(5-Chloro-1-benzofuran-2-yl)-6-[3-(methylsulfonyl)propoxy]imidazo[1,2-b]pyridazine]
48 nM | CS(=O)(=O)CCCOc1ccc2ncc(-c3cc4cccc(F)c4o3)n2n1 [Example III.6, 3-(7-Fluoro-1-benzofuran-2-yl)-6-[3-(methylsulfonyl)propoxy]imidazo[1,2-b]pyridazine]
61 nM | Cc1c(-c2cnc3ccc(OCCCS(C)(=O)=O)nn23)oc2ccccc12 [Example III.7, 3-(3-Methyl-1-benzofuran-2-yl)-6-[3-(methylsulfonyl)propoxy]imidazo[1,2-b]pyridazine]
70 nM | Cc1cccc2cc(-c3cnc4ccc(OCCCS(C)(=O)=O)nn34)oc12 [Example III.8, 3-(7-Methyl-1-benzofuran-2-yl)-6-[3-(methylsulfonyl)propoxy]imidazo[1,2-b]pyridazine]
17 nM | CS(=O)(=O)CCCOc1ccc2ncc(-c3cc4c(F)cccc4o3)n2n1 [Example III.9, 3-(4-Fluoro-1-benzofuran-2-yl)-6-[3-(methylsulfonyl)propoxy]imidazo[1,2-b]pyridazine]
11 nM | Cc1cc2ncc(-c3cc4ccccc4o3)n2nc1OCCCS(C)(=O)=O [Example III.10, 3-(1-Benzofuran-2-yl)-7-methyl-6-[3-(methylsulfonyl)propoxy]imidazo[1,2-b]-pyridazine]
17 nM | CS(=O)(=O)CCCOc1nn2c(-c3cc4ccccc4o3)cnc2cc1-c1ccccc1 [Example III.11, 3-(1-Benzofuran-2-yl)-6-[3-(methylsulfonyl)propoxy]-7-phenylimidazo[1,2-b]-pyridazine]
12 nM | COc1nccc2oc(-c3cnc4ccc(OCCCS(C)(=O)=O)nn34)cc12 [Example III.12, 3-(4-Methoxyfuro[3,2-c]pyridin-2-yl)-6-[3-(methylsulfonyl)propoxy]-imidazo-[1,2-b]pyridazine]
60 nM | CS(=O)(=O)CCCOc1ccc2ncc(-c3cc4ncccc4o3)n2n1 [Example III.14, 3-(Furo[3,2-b]pyridin-2-yl)-6-[3-(methylsulfonyl)propoxy]imidazo[1,2-b]pyridazine]
9 nM | COc1cccc2oc(-c3cnc4ccc(OCCCS(C)(=O)=NC(=O)C(F)(F)F)nn34)cc12 (stereo not shown) [Example IV.1, 2,2,2-Trifluoro-N-[(3-{[3-(4-methoxy-1-benzofuran-2-yl)imidazo[1,2-b]pyridazin-6-yl]oxy}propyl)(methyl)oxido-lambda^6-sulfanylidene]acetamide]
4 nM | CS(=N)(=O)CCCOc1ccc2ncc(-c3cc4ccccc4o3)n2n1 (stereo not shown) [Example IV.4, 3-(1-Benzofuran-2-yl)-6-[3-(S-methylsulfonimidoyl)propoxy]imidazo[1,2-b]pyridazine]
15 nM | CS(=O)(CCCCOc1ccc2ncc(-c3cc4ccccc4o3)n2n1)=NC(=O)C(F)(F)F (stereo not shown) [Example IV.5, N-[(4-{[3-(1-Benzofuran-2-yl)imidazo[1,2-b]pyridazin-6-yl]oxy}butyl)(methyl)oxido-lambda^6-sulfanylidene]-2,2,2-trifluoroacetamide]
47 nM | CS(=O)(CCOc1ccc2ncc(-c3cc4ccccc4o3)n2n1)=NC(=O)C(F)(F)F (stereo not shown) [Example IV.7, N-[(2-{[3-(1-Benzofuran-2-yl)imidazo[1,2-b]pyridazin-6-yl]oxy}ethyl)(methyl)oxido-lambda^6-sulfanylidene]-2,2,2-trifluoroacetamide]
7 nM | CS(=O)(CCCOc1ccc2ncc(-c3cc4ccccc4o3)n2n1)=NC#N (stereo not shown) [Example IV.8, [(3-{[3-(1-Benzofuran-2-yl)imidazo[1,2-b]pyridazin-6-yl]oxy}propyl)(methyl)oxido-lambda^6-sulfanylidene]cyanamide]
9 nM | COc1nccc2oc(-c3cnc4ccc(OCCCS(C)(=O)=NC#N)nn34)cc12 (stereo not shown) [Example IV.9, [(3-{[3-(4-Methoxyfuro[3,2-c]pyridin-2-yl)imidazo[1,2-b]pyridazin-6-yl]oxy}propyl)(methyl)oxido-lambda^6-sulfanylidene]cyanamide]
9 nM | COc1nccc2oc(-c3cnc4ccc(OCCCS(C)(=N)=O)nn34)cc12 (stereo not shown) [Example IV.10, 3-(4-Methoxyfuro[3,2-c]pyridin-2-yl)-6-[3-(S-methylsulfonimidoyl)propoxy]-imidazo[1,2-b]pyridazine]
28 nM | CS(=O)(=O)CCCOc1ccc2ncc(-c3cc4cnccc4o3)n2n1 [III.13, 3-(Furo[3,2-c]pyridin-2-yl)-6-[3-(methylsulfonyl)propoxy]imidazo[1,2-b]-pyridazine]

Structure (SMILES) | IC50
CSCCCCOc1ccc2ncc(-c3cc4ccccc4o3)n2n1 [Example I.3, 3-(1-Benzofuran-2-yl)-6-[4-(methylsulfanyl)butoxy]imidazo[1,2-b]pyridazine] | 27 nM
C[S+]([O-])CCCCOc1ccc2ncc(-c3cc4ccccc4o3)n2n1 (stereo not shown) [Example II.3, 3-(1-Benzofuran-2-yl)-6-[4-(methylsulfinyl)butoxy]imidazo[1,2-b]pyridazine] | 5 nM
